From patent US11254663B2 (BRISTOL-MYERS SQUIBB COMPANY, priority 2019, dated 2022)

Target: FXR (Homo sapiens (Human), UniProt Q96RI1)
Test: transient human FXR/Gal4-luciferase reporter assay
Format: cell-based
Settings: not given
Outline: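 HEK293 cells stably carrying a 5×Gal4 response element–firefly luciferase reporter were transiently transfected overnight with a Gal4 DBD–human FXR LBD fusion plasmid. Compound was added in DMSO and cells were incubated overnight at 37 °C, 5% CO2. Activity was read as Steady-Glo luminescence.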

Chain of FXR (Q96RI1 262-486): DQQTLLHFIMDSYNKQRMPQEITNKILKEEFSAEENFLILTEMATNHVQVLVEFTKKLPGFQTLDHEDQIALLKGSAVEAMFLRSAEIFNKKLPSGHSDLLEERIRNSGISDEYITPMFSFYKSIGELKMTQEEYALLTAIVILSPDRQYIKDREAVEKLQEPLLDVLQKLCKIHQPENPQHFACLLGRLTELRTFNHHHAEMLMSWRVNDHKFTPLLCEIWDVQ

Compound | EC50
CC(C)(C)c1noc(C23CCC(CN(C(=O)C45CC(F)(C4)C5)c4cncc(-c5cnc(C6CC6)nc5)c4)(CC2)CC3)n1 [Example 473, N-((4-(3-(tert-butyl)-1,2,4-oxadiazol-5-yl)bicyclo[2.2.2]octan-1-yl)methyl)-N-(5-(2-cyclopropylpyrimidin-5-yl)pyridin-3-yl)-3-fluorobicyclo[1.1.1]pentane-1-carboxamide] | 0.501 µM
CCOc1ccc(-c2cccc(N(CC34CCC(c5ccc(C(F)(F)F)cn5)(CC3)CC4)C(=O)C34CC(F)(C3)C4)c2)cc1 [Example 489, N-(4′-ethoxy-[1,1′-biphenyl]-3-yl)-3-fluoro-N-((4-(5-(trifluoromethyl)pyridin-2-yl)bicyclo[2.2.2]octan-1-yl)methyl)bicyclo[1.1.1]pentane-1-carboxamide] | 1.64 µM
CC(C)(C)c1nc(C23CCC(CN(C(=O)C45CC(F)(C4)C5)c4cncc(-c5ccc6[nH]c(=O)oc6c5)c4)(CC2)CC3)no1 [Example 479, N-((4-(5-(tert-butyl)-1,2,4-oxadiazol-3-yl)bicyclo[2.2.2]octan-1-yl)methyl)-3-fluoro-N-(5-(2-oxo-2,3-dihydrobenzo[d]oxazol-6-yl)pyridin-3-yl)bicyclo[1.1.1]pentane-1-carboxamide] | 0.367 µM
COc1cnc(-c2cccc(N(CC34CCC(c5ccc(C(F)(F)F)cn5)(CC3)CC4)C(=O)C34CC(F)(C3)C4)c2)nc1 [Example 500, 3-fluoro-N-(3-(5-methoxypyrimidin-2-yl)phenyl)-N-((4-(5-(trifluoromethyl)pyridin-2-yl)bicyclo[2.2.2]octan-1-yl)methyl)bicyclo[1.1.1]pentane-1-carboxamide] | 0.81 µM
Cc1nc2ccc(-c3cncc(N(CC45CCC(c6nc(C(C)(C)C)no6)(CC4)CC5)C(=O)C45CC(F)(C4)C5)c3)cc2s1 [Example 474, N-((4-(3-(tert-butyl)-1,2,4-oxadiazol-5-yl)bicyclo[2.2.2]octan-1-yl)methyl)-3-fluoro-N-(5-(2-methylbenzo[d]thiazol-6-yl)pyridin-3-yl)bicyclo[1.1.1]pentane-1-carboxamide] | 0.541 µM
O=C(N(CC12CCC(c3nc(C(F)F)no3)(CC1)CC2)c1cccc(-c2ccc(OC(F)F)cc2)c1)C12CC(F)(C1)C2 [Example 468, N-(4′-(difluoromethoxy)-[1,1′-biphenyl]-3-yl)-N-((4-(3-(difluoromethyl)-1,2,4-oxadiazol-5-yl)bicyclo[2.2.2]octan-1-yl)methyl)-3-fluorobicyclo[1.1.1]pentane-1-carboxamide] | 0.184 µM

Same assay, conditions: Gal4-hFXR fusion construct, HEK293 reporter cells; response relative to 8 μM GW-4064

Compound | EC50
COc1cc(-c2cccc(N(CC34CCC(c5cc(C(F)(F)F)ccn5)(CC3)CC4)C(=O)C3CCC3)c2)ccn1 [Example 240, N-(3-(2-methoxypyridin-4-yl)phenyl)-N-((4-(4-(trifluoromethyl)pyridin-2-yl)bicyclo[2.2.2]octan-1-yl)methyl)cyclobutanecarboxamide] | 2.13 µM
CCOc1ccc(-c2cccc(N(CC34CCC(c5noc(C6(C)CC6)n5)(CC3)CC4)C(=O)C34CC(F)(C3)C4)c2)cc1 [Example 399, N-(4′-ethoxy-[1,1′-biphenyl]-3-yl)-3-fluoro-N-((4-(5-(1-methylcyclopropyl)-1,2,4-oxadiazol-3-yl)bicyclo[2.2.2]octan-1-yl)methyl)bicyclo[1.1.1]pentane-1-carboxamide] | 0.058 µM
O=C(C1CC(O)(C(F)(F)F)C1)N(CC12CCC(C(=O)NS(=O)(=O)C3CC3)(CC1)CC2)c1cccc(-c2ccc(OC(F)F)cc2)c1 (stereo not drawn) [Example 638, N-(cyclopropylsulfonyl)-4-(((cis)-N-(4′-(difluoromethoxy)-[1,1′-biphenyl]-3-yl)-3-hydroxy-3-(trifluoromethyl)cyclobutane-1-carboxamido)methyl)bicyclo[2.2.2]octane-1-carboxamide] | 2 µM
CCc1ccc(-c2cccc(N(CC34CCC(c5noc(C(C)(C)C)n5)(CC3)CC4)C(=O)C34CC(F)(C3)C4)c2)cc1 [Example 456, N-((4-(5-(tert-butyl)-1,2,4-oxadiazol-3-yl)bicyclo[2.2.2]octan-1-yl)methyl)-N-(4′-ethyl-[1,1′-biphenyl]-3-yl)-3-fluorobicyclo[1.1.1]pentane-1-carboxamide] | 0.106 µM
N#Cc1ccc(-c2cccc(N(CC34CCC(c5nc(C6CC6)no5)(CC3)CC4)C(=O)C34CC(F)(C3)C4)c2)cc1 [Example 302, N-(4′-cyano-[1,1′-biphenyl]-3-yl)-N-((4-(3-cyclopropyl-1,2,4-oxadiazol-5-yl)bicyclo[2.2.2]octan-1-yl)methyl)-3-fluorobicyclo[1.1.1]pentane-1-carboxamide] | 0.861 µM
CC(C)c1nc(C23CCC(CN(C(=O)C45CC(F)(C4)C5)c4cccc(-c5ccc(OC(F)F)cc5)c4)(CC2)CC3)no1 [Example 436, N-(4′-(difluoromethoxy)-[1,1′-biphenyl]-3-yl)-3-fluoro-N-((4-(5-isopropyl-1,2,4-oxadiazol-3-yl)bicyclo[2.2.2]octan-1-yl)methyl)bicyclo[1.1.1]pentane-1-carboxamide] | 0.046 µM
CCOc1ncc(-c2cccc(N(CC34CCC(c5nc(C6CC6)no5)(CC3)CC4)C(=O)C34CC(F)(C3)C4)c2)cn1 [Example 289, N-((4-(3-cyclopropyl-1,2,4-oxadiazol-5-yl)bicyclo[2.2.2]octan-1-yl)methyl)-N-(3-(2-ethoxypyrimidin-5-yl)phenyl)-3-fluorobicyclo[1.1.1]pentane-1-carboxamide] | 0.048 µM
CC(C)(C)c1nc(C23CCC(CN(C(=O)C45CC(F)(C4)C5)c4cncc(-c5ncc(OC(F)F)cn5)c4)(CC2)CC3)no1 [Example 485, N-((4-(5-(tert-butyl)-1,2,4-oxadiazol-3-yl)bicyclo[2.2.2]octan-1-yl)methyl)-N-(5-(5-(difluoromethoxy)pyrimidin-2-yl)pyridin-3-yl)-3-fluorobicyclo[1.1.1]pentane-1-carboxamide] | 0.041 µM
Cc1ccc(-c2cccc(N(CC34CCC(c5nc(C6CC6)no5)(CC3)CC4)C(=O)C34CC(F)(C3)C4)c2)nn1 [Example 295, N-((4-(3-cyclopropyl-1,2,4-oxadiazol-5-yl)bicyclo[2.2.2]octan-1-yl)methyl)-3-fluoro-N-(3-(6-methylpyridazin-3-yl)phenyl)bicyclo[1.1.1]pentane-1-carboxamide] | 0.839 µM
O=C(N(CC12CCC(c3nc(C4CC4)no3)(CC1)CC2)c1cccc(-c2cnc3cccnn23)c1)C12CC(F)(C1)C2 [Example 318, N-((4-(3-cyclopropyl-1,2,4-oxadiazol-5-yl)bicyclo[2.2.2]octan-1-yl)methyl)-3-fluoro-N-(3-(imidazo[1,2-b]pyridazin-3-yl)phenyl)bicyclo[1.1.1]pentane-1-carboxamide] | 0.172 µM
CCOc1ccc(-c2cccc(N(CC34CCC(c5cnc(C(F)(F)F)nc5)(CC3)OC4)C(=O)C34CC(F)(C3)C4)c2)cc1 [Example 422, N-(4′-ethoxy-[1,1′-biphenyl]-3-yl)-3-fluoro-N-((1-(2-(trifluoromethyl)pyrimidin-5-yl)-2-oxabicyclo[2.2.2]octan-4-yl)methyl)bicyclo[1.1.1]pentane-1-carboxamide] | 1.52 µM
CC(C)(C)c1nc(C23CCC(CN(C(=O)C45CC(F)(C4)C5)c4ccnc(-c5cnc(C6CC6)nc5)c4)(CC2)CC3)no1 [Example 597, N-((4-(5-(tert-butyl)-1,2,4-oxadiazol-3-yl)bicyclo[2.2.2]octan-1-yl)methyl)-N-(2-(2-cyclopropylpyrimidin-5-yl)pyridin-4-yl)-3-fluorobicyclo[1.1.1]pentane-1-carboxamide] | 0.226 µM
Cc1nc2ccc(-c3cccc(N(CC45CCC(c6nc(C(C)(C)C)no6)(CC4)CC5)C(=O)C45CC(F)(C4)C5)c3)cc2s1 [Example 362, N-((4-(3-(tert-butyl)-1,2,4-oxadiazol-5-yl)bicyclo[2.2.2]octan-1-yl)methyl)-3-fluoro-N-(3-(2-methylbenzo[d]thiazol-6-yl)phenyl)bicyclo[1.1.1]pentane-1-carboxamide] | 0.204 µM
CC(C)(C)c1nc(C23CCC(CN(c4cccc(-c5ccc(NS(C)(=O)=O)cc5)c4)C(=O)[C@H]4C[C@@](C)(O)C4)(CC2)CC3)no1 [Example 512, (cis)-N-((4-(5-(tert-butyl)-1,2,4-oxadiazol-3-yl)bicyclo[2.2.2]octan-1-yl)methyl)-3-hydroxy-3-methyl-N-(4′-(methylsulfonamido)-[1,1′-biphenyl]-3-yl)cyclobutane-1-carboxamide] | 0.909 µM
CC(C)(C)NC(=O)N(CC12CCC(c3noc(C(F)(F)F)n3)(CC1)CC2)c1cccc(-c2ccc(C(C)(C)OC(F)F)cc2)c1 [Example 613, 3-(tert-butyl)-1-(4′-(2-(difluoromethoxy)propan-2-yl)-[1,1′-biphenyl]-3-yl)-1-((4-(5-(trifluoromethyl)-1,2,4-oxadiazol-3-yl)bicyclo[2.2.2]octan-1-yl)methyl)urea] | 0.079 µM
N#Cc1cnn2c(-c3cccc(N(CC45CCC(c6nc(C7CC7)no6)(CC4)CC5)C(=O)C45CC(F)(C4)C5)c3)cnc2c1 [Example 314, N-(3-(7-cyanoimidazo[1,2-b]pyridazin-3-yl)phenyl)-N-((4-(3-cyclopropyl-1,2,4-oxadiazol-5-yl)bicyclo[2.2.2]octan-1-yl)methyl)-3-fluorobicyclo[1.1.1]pentane-1-carboxamide] | 0.504 µM
CC(C)c1nc(C23CCC(CN(C(=O)C45CC(F)(C4)C5)c4cccc(-c5cnc(C(F)(F)F)nc5)c4)(CC2)CC3)no1 [Example 435, 3-fluoro-N-((4-(5-isopropyl-1,2,4-oxadiazol-3-yl)bicyclo[2.2.2]octan-1-yl)methyl)-N-(3-(2-(trifluoromethyl)pyrimidin-5-yl)phenyl)bicyclo[1.1.1]pentane-1-carboxamide] | 0.24 µM
COc1ccc(-c2cccc(N(CC34CCC(c5ccc(C6(C#N)CC6)cc5)(CC3)OC4)C(=O)C34CC(F)(C3)C4)c2)cc1 [Example 349, N-((1-(4-(1-cyanocyclopropyl)phenyl)-2-oxabicyclo[2.2.2]octan-4-yl)methyl)-3-fluoro-N-(4′-methoxy-[1,1′-biphenyl]-3-yl)bicyclo[1.1.1]pentane-1-carboxamide] | 0.13 µM
